Laboratory results as given in ChEMBL document CHEMBL1131537, “Synthesis of [(2'S, 3'S)-bis(hydroxylmethyl)pyrrolidin-1-yl] purine and pyrimidine nucleosides as potential antiviral agents” (Bioorg Med Chem Lett, 1998).
Activity calls are given as the source filed them.

Experiments:
Format in all cases: functional, cell-based
Vero [1] = assay: Antiviral activity was evaluated against HSV-2 in Vero cells at concentration up to 10 ug/mL by plaque reduction assay; Inactive; details: Chlorocebus sabaeus
Vero [2] = assay: Antiviral activity was evaluated against HSV-1 in Vero cells at concentration up to 10 ug/mL by plaque reduction assay; Inactive; details: Chlorocebus sabaeus
MT4 = assay: […] was evaluated against HIV-1 in MT-4 cells at concentration up to 10 ug/mL by indirect immunofluorescence assay; Inactive; details: Homo sapiens

Measured: Activity

Nc1ncnc2c1ncn2N1CC[C@H](CO)[C@H]1CO
inactive: Vero [1] | Vero [2] | MT4

Cc1cn(N2CC[C@H](CO)[C@H]2CO)c(=O)[nH]c1=O
inactive: Vero [1] | Vero [2] | MT4
